The text below walks through data of patent US20260365670A1, “EGFR INHIBITORS AND USES THEREOF” (DIZAL (JIANGSU) PHARMACEUTICAL CO., LTD., priority 2022, published 2026).

In one experiment the target is T1, EGFR wild type (Homo sapiens, UniProt P00533).
T1 construct: purchased Carna Bio
The experiment can be described thus: Inhibition of EGFR wild type biochemical enzymatic activity (HTRF). The conditions noted are these: 1 mM ATP. In short, it runs like this:
(§1)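 Each enzyme was first added to plates holding compound. The reaction was then started with ATP (1 mM) and peptide substrate (1 μM). It was stopped after 1 h at room temperature with EDTA detection reagents and read at 615/665 nm to derive IC50s.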
On the technique in general: TR-FRET usually uses a lanthanide donor and a delayed reading to cut background.

In a further experiment the target is T2, EGFR L858R (Homo sapiens, UniProt P00533, L858R).
T2 construct: purchased Carna Bio
Nature of the experiment: Inhibition of EGFR L858R biochemical enzymatic activity (HTRF). The conditions noted are these: 1 mM ATP. Summed up: as §1

The next experiment addresses T3, EGFR L858R/T790M (Homo sapiens, UniProt P00533, L858R/T790M).
T3 construct: purchased Carna Bio
Nature of the experiment: Inhibition of EGFR L858R/T790M biochemical enzymatic activity (HTRF). The conditions noted are these: 1 mM ATP. In short, it runs like this:
as §1

Another experiment has as its target T4, EGFR Exon19Del (Homo sapiens, UniProt P00533, DEL746-750).
T4 construct: purchased Carna Bio
The experiment can be described thus: Inhibition of EGFR Exon19Del biochemical enzymatic activity (HTRF). The conditions noted are these: read-out: IC50 @Del19. Summed up:
as §1

The next experiment addresses T5, EGFR Exon19Del/T790M (Homo sapiens, UniProt P00533, DEL746-750/T790M).
T5 construct: purchased Carna Bio
The experiment can be described thus: Inhibition of EGFR Exon19Del/T790M biochemical enzymatic activity (HTRF). The conditions noted are these: 1 mM ATP. In short, it runs like this: as §1

The next experiment concerns the target T6, EGFR[T790M/C797S/L858R] (Homo sapiens, UniProt P00533, C797S/L858R/T790M).
T6 construct: purchased Carna Bio
Nature of the experiment: Inhibition of EGFR[T790M/C797S/L858R] biochemical enzymatic activity (HTRF). The conditions noted are these: 1 mM ATP. In short, it runs like this:
as §1

Experiment [1] deals with T7, EGFR[T790M/C797S/d746-750] (Homo sapiens, UniProt P00533, C797S/DEL746-750/T790M).
T7 construct: purchased Carna Bio
The experiment can be described thus: Inhibition of EGFR[T790M/C797S/d746-750] biochemical enzymatic activity (HTRF). Summed up: as §1

The target of a further experiment is T8, EGFR (d746-750 C797S) (Homo sapiens, UniProt P00533, C797S/DEL746-750).
T8 construct: purchased signalchem
Nature of the experiment: Inhibition of EGFR (d746-750 C797S) biochemical enzymatic activity (HTRF). The conditions noted are these: 1 mM ATP. In short, it runs like this: as §1

The next experiment addresses T9, EGFR (C797S L858R) (Homo sapiens, UniProt P00533, C797S/L858R).
T9 construct: purchased signalchem
Nature of the experiment: Inhibition of EGFR (C797S L858R) biochemical enzymatic activity (HTRF). The conditions noted are these: 1 mM ATP. In short, it runs like this:
as §1

In experiment [2] the test system is Ba/F3 cells expressing EGFR mutations. Nature of the experiment: Cell proliferation assay, Ba/F3 cells expressing EGFR mutations (CellTiter-Glo, 72 hours). It counts as cell-based. In short, it runs like this:
(§2)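 Ba/F3 cells carrying EGFR mutants (5000/well) or PC-9 cells (500/well) in RPMI1640 were dosed with compound series after overnight attachment and grown 72 h. Viability read by CellTiter-Glo, with day-0 counts subtracted; GI50 from curve fits of % proliferation versus DMSO control.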
Background: Cellular ATP, detected with luciferase, serves as a proxy for viable cell number.

The next experiment deals with PC-9. Nature of the experiment: Cell proliferation assay, PC-9 cells (CellTiter-Glo, 72 hours). It is filed as cell-based. The conditions noted are these: PC9 cells, read-out: GI50 PC9. Summed up:
as §2

For another experiment, the system named is A-431. Nature of the experiment: Cell proliferation assay, A-431 cells (GI50, Table 6). It is filed as cell-based.

Broadly, the IC50 is the concentration needed to halve the response being measured.

Like-named read-outs stand apart in the source and are kept apart here.

T9 sequence (P00533 25-1210 C797S/L858R): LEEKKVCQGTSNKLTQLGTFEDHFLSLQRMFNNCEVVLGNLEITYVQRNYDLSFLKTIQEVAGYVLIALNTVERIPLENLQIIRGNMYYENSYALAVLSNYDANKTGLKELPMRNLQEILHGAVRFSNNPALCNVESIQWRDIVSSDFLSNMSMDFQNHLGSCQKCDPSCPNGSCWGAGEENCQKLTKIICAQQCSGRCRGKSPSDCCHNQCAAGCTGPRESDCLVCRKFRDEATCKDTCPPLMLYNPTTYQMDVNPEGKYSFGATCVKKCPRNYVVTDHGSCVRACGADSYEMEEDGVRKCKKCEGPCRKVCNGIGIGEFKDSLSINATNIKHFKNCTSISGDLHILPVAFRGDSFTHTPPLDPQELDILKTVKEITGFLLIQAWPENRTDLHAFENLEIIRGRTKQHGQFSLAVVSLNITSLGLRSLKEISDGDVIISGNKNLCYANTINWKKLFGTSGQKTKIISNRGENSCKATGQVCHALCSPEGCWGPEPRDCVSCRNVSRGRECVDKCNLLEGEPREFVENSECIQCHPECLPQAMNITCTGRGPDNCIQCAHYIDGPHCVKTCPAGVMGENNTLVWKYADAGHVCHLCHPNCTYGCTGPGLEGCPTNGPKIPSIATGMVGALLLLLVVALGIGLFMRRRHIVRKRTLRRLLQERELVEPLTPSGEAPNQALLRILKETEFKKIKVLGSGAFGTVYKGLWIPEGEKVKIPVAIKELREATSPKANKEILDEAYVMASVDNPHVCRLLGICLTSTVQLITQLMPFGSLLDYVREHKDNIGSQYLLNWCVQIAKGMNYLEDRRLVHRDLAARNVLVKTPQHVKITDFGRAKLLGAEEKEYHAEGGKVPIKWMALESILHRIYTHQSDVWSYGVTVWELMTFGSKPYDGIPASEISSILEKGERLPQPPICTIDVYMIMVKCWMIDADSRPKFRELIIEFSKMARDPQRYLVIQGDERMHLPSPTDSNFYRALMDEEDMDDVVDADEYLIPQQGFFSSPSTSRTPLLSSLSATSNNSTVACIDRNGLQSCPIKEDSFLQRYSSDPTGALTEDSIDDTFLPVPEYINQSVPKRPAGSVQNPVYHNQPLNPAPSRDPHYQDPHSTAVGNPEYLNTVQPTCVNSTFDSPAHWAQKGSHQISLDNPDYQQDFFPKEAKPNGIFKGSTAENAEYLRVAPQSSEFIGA
T6 sequence (P00533 25-1210 T790M/C797S/L858R): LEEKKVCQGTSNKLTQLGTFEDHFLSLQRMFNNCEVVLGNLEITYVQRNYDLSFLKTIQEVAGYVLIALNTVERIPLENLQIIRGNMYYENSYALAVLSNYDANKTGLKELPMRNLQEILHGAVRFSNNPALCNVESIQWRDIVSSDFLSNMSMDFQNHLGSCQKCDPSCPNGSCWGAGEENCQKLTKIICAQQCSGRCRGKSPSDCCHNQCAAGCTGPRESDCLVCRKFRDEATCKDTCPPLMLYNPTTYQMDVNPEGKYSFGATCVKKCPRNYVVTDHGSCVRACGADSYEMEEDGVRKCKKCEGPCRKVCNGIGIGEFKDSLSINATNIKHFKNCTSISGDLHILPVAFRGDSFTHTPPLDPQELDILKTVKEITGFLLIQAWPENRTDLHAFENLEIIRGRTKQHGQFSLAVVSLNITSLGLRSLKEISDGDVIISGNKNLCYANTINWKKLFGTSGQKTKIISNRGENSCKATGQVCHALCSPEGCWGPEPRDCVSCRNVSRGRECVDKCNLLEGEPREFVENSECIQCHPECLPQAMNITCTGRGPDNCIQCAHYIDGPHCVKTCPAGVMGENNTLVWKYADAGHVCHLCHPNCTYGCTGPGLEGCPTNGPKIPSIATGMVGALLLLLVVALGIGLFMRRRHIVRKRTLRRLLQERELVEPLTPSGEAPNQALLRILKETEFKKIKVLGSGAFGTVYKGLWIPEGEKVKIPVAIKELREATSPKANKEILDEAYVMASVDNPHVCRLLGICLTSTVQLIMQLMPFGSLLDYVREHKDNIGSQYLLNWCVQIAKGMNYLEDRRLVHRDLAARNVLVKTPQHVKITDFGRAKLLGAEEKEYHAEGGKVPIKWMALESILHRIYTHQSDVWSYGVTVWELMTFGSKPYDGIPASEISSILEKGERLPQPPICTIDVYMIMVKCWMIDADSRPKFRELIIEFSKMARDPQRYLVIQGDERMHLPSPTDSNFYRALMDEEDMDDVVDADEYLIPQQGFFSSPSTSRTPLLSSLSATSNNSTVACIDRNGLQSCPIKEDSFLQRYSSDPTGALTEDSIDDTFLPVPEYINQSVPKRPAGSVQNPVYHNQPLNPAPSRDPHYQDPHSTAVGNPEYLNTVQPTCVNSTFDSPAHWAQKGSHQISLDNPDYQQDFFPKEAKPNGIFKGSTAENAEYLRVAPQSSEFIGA
T1 sequence (P00533 25-1210): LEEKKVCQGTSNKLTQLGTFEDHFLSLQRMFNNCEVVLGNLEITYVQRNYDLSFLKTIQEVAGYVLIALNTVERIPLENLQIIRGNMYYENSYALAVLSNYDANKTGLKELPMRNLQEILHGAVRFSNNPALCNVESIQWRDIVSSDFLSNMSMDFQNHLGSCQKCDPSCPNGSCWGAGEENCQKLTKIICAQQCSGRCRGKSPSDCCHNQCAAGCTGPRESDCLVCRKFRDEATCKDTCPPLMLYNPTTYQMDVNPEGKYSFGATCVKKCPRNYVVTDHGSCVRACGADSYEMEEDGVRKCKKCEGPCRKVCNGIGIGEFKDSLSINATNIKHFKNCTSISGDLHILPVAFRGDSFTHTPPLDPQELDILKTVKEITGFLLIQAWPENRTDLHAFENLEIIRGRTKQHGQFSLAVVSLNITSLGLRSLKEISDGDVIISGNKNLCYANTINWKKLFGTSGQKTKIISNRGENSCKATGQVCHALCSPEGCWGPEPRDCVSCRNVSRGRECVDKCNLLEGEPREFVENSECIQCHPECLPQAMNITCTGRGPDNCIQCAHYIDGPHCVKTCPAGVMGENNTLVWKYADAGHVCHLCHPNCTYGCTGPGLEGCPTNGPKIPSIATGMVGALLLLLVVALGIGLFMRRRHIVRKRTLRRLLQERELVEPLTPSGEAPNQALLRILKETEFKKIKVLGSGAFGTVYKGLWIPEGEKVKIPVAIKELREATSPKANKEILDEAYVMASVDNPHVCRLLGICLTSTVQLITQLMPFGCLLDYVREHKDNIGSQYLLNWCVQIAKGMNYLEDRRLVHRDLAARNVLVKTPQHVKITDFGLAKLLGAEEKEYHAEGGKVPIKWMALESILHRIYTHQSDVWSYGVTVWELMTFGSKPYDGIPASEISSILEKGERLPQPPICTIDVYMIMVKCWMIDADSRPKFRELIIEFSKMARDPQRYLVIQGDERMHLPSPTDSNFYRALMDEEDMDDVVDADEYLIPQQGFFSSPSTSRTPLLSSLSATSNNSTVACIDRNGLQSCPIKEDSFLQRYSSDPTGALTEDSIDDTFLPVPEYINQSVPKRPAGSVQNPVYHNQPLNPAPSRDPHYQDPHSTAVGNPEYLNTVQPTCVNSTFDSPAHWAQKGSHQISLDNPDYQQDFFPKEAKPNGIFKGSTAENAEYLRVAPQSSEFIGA
T8 sequence (P00533 with tags, fused parts or gaps DEL746-750/C797S limits assumed): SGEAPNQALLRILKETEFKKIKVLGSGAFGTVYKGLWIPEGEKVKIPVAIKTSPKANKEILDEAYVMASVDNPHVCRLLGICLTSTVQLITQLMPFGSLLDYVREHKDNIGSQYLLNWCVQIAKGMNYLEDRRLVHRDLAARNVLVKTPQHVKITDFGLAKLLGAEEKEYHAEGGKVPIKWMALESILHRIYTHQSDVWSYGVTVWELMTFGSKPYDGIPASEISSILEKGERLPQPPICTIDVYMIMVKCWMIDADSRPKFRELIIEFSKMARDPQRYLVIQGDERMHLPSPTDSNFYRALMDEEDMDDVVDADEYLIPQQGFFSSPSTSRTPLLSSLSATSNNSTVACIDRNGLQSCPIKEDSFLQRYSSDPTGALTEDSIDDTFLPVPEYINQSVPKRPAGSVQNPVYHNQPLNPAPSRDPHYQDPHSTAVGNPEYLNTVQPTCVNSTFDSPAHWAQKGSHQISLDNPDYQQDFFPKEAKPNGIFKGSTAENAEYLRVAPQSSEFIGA
T4 sequence (P00533 with tags, fused parts or gaps DEL746-750 limits assumed): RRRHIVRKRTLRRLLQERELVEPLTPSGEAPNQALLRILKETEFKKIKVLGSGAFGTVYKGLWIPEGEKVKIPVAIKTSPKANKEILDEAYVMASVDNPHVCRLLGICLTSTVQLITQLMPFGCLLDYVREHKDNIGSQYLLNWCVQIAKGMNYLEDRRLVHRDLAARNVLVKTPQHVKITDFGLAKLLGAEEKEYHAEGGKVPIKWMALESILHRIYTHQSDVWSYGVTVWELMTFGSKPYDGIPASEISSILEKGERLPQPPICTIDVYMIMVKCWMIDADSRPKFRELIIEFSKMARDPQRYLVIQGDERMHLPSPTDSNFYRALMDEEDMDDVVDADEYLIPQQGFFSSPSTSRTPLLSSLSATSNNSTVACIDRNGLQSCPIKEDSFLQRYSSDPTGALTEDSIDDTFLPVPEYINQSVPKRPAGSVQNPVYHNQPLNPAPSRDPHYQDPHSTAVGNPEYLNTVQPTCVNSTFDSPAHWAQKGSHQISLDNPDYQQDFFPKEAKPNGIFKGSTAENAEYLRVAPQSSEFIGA

Consider `Cc1cc2cc(n1)-c1cnn(C)c1OCCN1CC3CCC(C3)(C1)n1c(nc3ccc(N4CCOCC4)cc31)NC2=O` (single isomer, unassigned) [Example B10B, 15,21-Dimethyl-5-(morpholin-4-yl)-23-oxa-2,9,11,16,20,21,26-heptaazaheptacyclo[24.4.1.1^{1,28}.1^{13,17}.0^{2,10}.0^{3,8}.0^{18,22}]tritriaconta-3,5,7,9,13,15,17(33),18(22),19-nonaen-12-one], for which the IC50 on EGFR wild type (EGFR wild type, 1 h at room temperature, read-out: IC50 @WT) is more than 5000 nM; on EGFR L858R (1 h at room temperature, read-out: IC50 @L858R), more than 5000 nM; on EGFR L858R/T790M (EGFR L858R/T790M, 1 h at room temperature, read-out: IC50 @L858R-T790M), more than 5000 nM; on EGFR Exon19Del (EGFR Exon19Del, 1 mM ATP, 1 h at room temperature), 1080 nM; on EGFR Exon19Del/T790M (EGFR Exon19Del/T790M, 1 h at room temperature, read-out: IC50 @Del19-T790M), more than 5000 nM; on EGFR[T790M/C797S/L858R] (EGFR[T790M/C797S/L858R], 1 h at room temperature, read-out: IC50 @T790M- C797S - L858R), more than 5000 nM. Besides, the IC50 is 4040 nM in [1] (EGFR[T790M/C797S/d746-750], 1 mM ATP, 1 h at room temperature, read-out: IC50 @T790M - C797S - Del19); 1430 nM at EGFR (d746-750 C797S) (EGFR (d746-750 C797S), 1 h at room temperature, read-out: IC50 @Del19-C797S); more than 5000 nM on EGFR (C797S L858R) (EGFR (C797S L858R), 1 h at room temperature, read-out: IC50 @L858-C797S). Also, the GI50 in [2] (BaF3 cells, EGFR DEL19 - C797S, read-out: GI50 DEL19 - C797S/BaF3) came out at 403 nM; in experiment [2] (BaF3 cells, EGFR DEL19 - T790-C797S, read-out: GI50 DEL19 - T790-C797S/BaF3) it was 516 nM; in experiment [2] (BaF3 cells, EGFR L858R - C797S, read-out: GI50 L858R - C797S/BaF3), 1580 nM; in [2] (BaF3 cells, EGFR L858R - T790-C797S, read-out: GI50 L858R - T790-C797S/BaF3), 595 nM; in experiment [2] (BaF3 cells, EGFR L858R - T790M, read-out: GI50 L858R - T790M/BaF3) it was 539 nM; in experiment [2] (BaF3 cells, EGFR L858R, read-out: GI50 L858R/BaF3), 2910 nM. The GI50 turned out to be 765 nM in experiment [2] (EGFR DEL19 - T790M, read-out: GI50 DEL19 - T790M); 2620 nM with PC-9; 5.52 µM with A-431 (A-431 cells).
`Cn1ncc2c1OCCN1CC3CCC(CC3)(C1)n1c(nc3cc(F)ccc31)NC(=O)c1cc-2c(=O)n(C)c1` [Example A116, 6-fluoro-15,21-dimethyl-23-oxa-2,9,11,15,20,21,26-heptaazaheptacyclo[26.2.2.1^{1,26}.1^{13,17}.0^{2,10}.0^{3,8}.0^{18,22}]tetratriaconta-3,5,7,9,13,17(34),18(22),19-octaene-12,16-dione]: the IC50 was more than 5000 nM at EGFR wild type (EGFR WT, 1 h, room temperature, read-out: IC50 (nM) @WT); more than 5000 nM on EGFR L858R (1 h, room temperature, read-out: IC50 (nM) @L858R); more than 5000 nM on EGFR L858R/T790M (EGFR L858R-T790M, 1 h, room temperature, read-out: IC50 (nM) @L858R-T790M); 464 nM at EGFR Exon19Del (EGFR Del19, 1 mM ATP, 1 h, room temperature); 88 nM on EGFR Exon19Del/T790M (EGFR Del19-T790M, 1 h, room temperature, read-out: IC50 (nM) @Del19-T790M); more than 5000 nM on EGFR[T790M/C797S/L858R] (EGFR T790M-C797S-L858R, 1 h, room temperature, read-out: IC50 (nM) @T790M- C797S - L858R). Also, the IC50 is 168 nM in experiment [1] (EGFR T790M-C797S-Del19, 1 mM ATP, 1 h, room temperature, read-out: IC50 (nM) @T790M - C797S - Del19); 474 nM at EGFR (d746-750 C797S) (EGFR Del19-C797S, 1 h, room temperature, read-out: IC50 (nM) @Del19-C797S); 3700 nM at EGFR (C797S L858R) (EGFR L858-C797S, 1 h, room temperature, read-out: IC50 (nM) @L858-C797S). The GI50 in [2] (Mus musculus, BaF3, 72 h, BaF3 cells, EGFR DEL19 - C797S, read-out: GI50 DEL19 - C797S/BaF3) is 56 nM; in [2] (Mus musculus, BaF3, 72 h, BaF3 cells, EGFR DEL19 - T790-C797S, read-out: GI50 DEL19 - T790-C797S/BaF3), 336 nM; in [2] (Mus musculus, BaF3, 72 h, BaF3 cells, EGFR L858R - C797S, read-out: GI50 L858R - C797S/BaF3), 194 nM; in experiment [2] (Mus musculus, BaF3, 72 h, BaF3 cells, EGFR L858R - T790-C797S, read-out: GI50 L858R - T790-C797S/BaF3) it was 162 nM; in [2] (Mus musculus, BaF3, 72 h, BaF3 cells, EGFR L858R - T790M, read-out: GI50 L858R - T790M/BaF3), 720 nM; in [2] (Mus musculus, BaF3, 72 h, BaF3 cells, EGFR L858R, read-out: GI50 L858R/BaF3), 419 nM. Besides, the GI50 came to 157 nM in experiment [2] (Mus musculus, BaF3, 72 h, EGFR DEL19 - T790M, read-out: GI50 DEL19 - T790M); 256 nM in the experiment with PC-9 (Homo sapiens, PC-9, 72 h); 3.44 µM in the experiment on A-431 (Homo sapiens, A-431, A-431 cells).
